Data reported in ChEMBL document CHEMBL6120947, “Synthesis and Antiosteoporotic Characterization of Diselenyl Maleimides: Discovery of a Potent Agent for the Treatment of Osteoporosis by Targeting RANKL” (J Med Chem, 2024).
pKd: −log10 of the molar value. Calls of active or inactive are those of the source. No cut-off for these calls is given here.

How the values were obtained:
BMDM [1] = assay: Inhibition of osteoclastogenesis in M-CSF/RANKL-induced osteoclast differentiation in C57BL/6J mouse BMDM cells assessed as reduction in I-kappaB-alpha degradation at 1 uM measured upto 60 mins by Western blot analysis; assay type: functional, cell-based
BMDM [2] = assay: Inhibition of osteoclastogenesis in M-CSF/RANKL-induced osteoclast differentiation in C57BL/6J mouse BMDM cells assessed as reduction in bone resorption area measured after 6 days by hydroxyapatite resorption assay; assay type: functional, cell-based; conditions: dose <= 2.0 µM, time 6.0 day
BMDM [3] = assay: Inhibition of osteoclastogenesis in M-CSF/RANKL-induced osteoclast differentiation in C57BL/6J mouse BMDM cells assessed as reduction in JNK phosphorylation at 1 uM measured upto 60 mins by Western blot analysis; assay type: functional, cell-based
BMDM [4] = assay: Effect in p65 level in M-CSF/RANKL-induced osteoclast differentiation in C57BL/6J mouse BMDM cells at 1 uM measured upto 60 mins by Western blot analysis; assay type: functional, cell-based
BMDM [5] = assay: Inhibition of osteoclastogenesis in M-CSF/RANKL-induced osteoclast differentiation in C57BL/6J mouse BMDM cells assessed as suppression of osteoclast size measured after 7 days by F-actin ring-TRITC phalloidin staining based analysis; assay type: functional, cell-based; conditions: dose <= 2.0 µM, time 7.0 day
MC3T3-E1 [6] = assay: Effect on osteoblast differentiation in mouse MC3T3-E1 cells assessed as change in BMP2 mRNA level at 0.5 to 2 uM incubated for 7 days by qRT-PCR analysis; assay type: functional, cell-based; conditions: dose 0.5-2 µM, time 7.0 day
MC3T3-E1 [7] = assay: Effect on osteoblast differentiation in mouse MC3T3-E1 cells assessed as change in ALP level at 0.5 to 2 uM incubated for 7 days by inverted microscopy; assay type: functional, cell-based; conditions: dose 0.5-2 µM, time 7.0 day
BMDM [8] = assay: Inhibition of osteoclastogenesis in M-CSF/RANKL-induced osteoclast differentiation in C57BL/6J mouse BMDM cells assessed as reduction in TRAP mRNA level measured after 5 days by qRT-PCR analysis; assay type: functional, cell-based; conditions: dose <= 2.0 µM, time 5.0 day
[9] = Inhibition of C57BL/6 mouse T cell proliferation upto 2 uM incubated for 5 days by APC-Annexin V staining based analysis; assay type: toxicity; conditions: 120 h, time 5 day
BMDM [10] = assay: Inhibition of osteoclastogenesis in M-CSF/RANKL-induced osteoclast differentiation in C57BL/6J mouse BMDM cells assessed as suppression of osteoclast nuclei number measured after 7 days by F-actin ring-TRITC phalloidin staining based analysis; assay type: functional, cell-based; conditions: dose <= 2.0 µM, time 7.0 day
RAW264.7 = assay: Inhibition of osteoclastogenesis in RANKL-induced osteoclast differentiation in mouse RAW264.7 cells incubated for 4 days by TRAP staining based analysis; assay type: functional, cell-based; conditions: time 4.0 day
BMDM [11] = assay: Inhibition of osteoclastogenesis in M-CSF/RANKL-induced osteoclast differentiation in C57BL/6J mouse BMDM cells assessed as reduction in cathepsin K mRNA level measured after 5 days by qRT-PCR analysis; assay type: functional, cell-based; conditions: dose <= 2.0 µM, time 5.0 day
MC3T3-E1 [12] = assay: Effect on osteoblast differentiation in mouse MC3T3-E1 cells assessed as change in BMP2 level at 0.5 to 2 uM incubated for 7 days by Western blot analysis; assay type: functional, cell-based; conditions: dose 0.5-2 µM, time 7.0 day
BMDM [13] = assay: Effect in JNK level in M-CSF/RANKL-induced osteoclast differentiation in C57BL/6J mouse BMDM cells at 1 uM measured upto 60 mins by Western blot analysis; assay type: functional, cell-based
[14] = Toxicity in OVX-induced osteoporosis C57BL/6 mouse model assessed as pathological change in kidney at 10 mg/kg, po administered every other day for 8 weeks by H and E staining based analysis; assay type: organism-based; conditions: in vivo, 1344 h
BMDM [15] = assay: Inhibition of osteoclastogenesis in M-CSF/RANKL-induced osteoclast differentiation in C57BL/6J mouse BMDM cells assessed as reduction in NFATc1 level measured after 5 days by Western blot analysis; assay type: functional, cell-based; conditions: dose <= 2.0 µM, time 5.0 day
[16] = target: T1, Tumor necrosis factor ligand superfamily member 11 (Homo sapiens) (UniProt O14788); assay: Binding affinity to RANKL (unknown origin) incubated for 15 mins by RED-NHS dye based MST assay
T1 sequence (whole entry): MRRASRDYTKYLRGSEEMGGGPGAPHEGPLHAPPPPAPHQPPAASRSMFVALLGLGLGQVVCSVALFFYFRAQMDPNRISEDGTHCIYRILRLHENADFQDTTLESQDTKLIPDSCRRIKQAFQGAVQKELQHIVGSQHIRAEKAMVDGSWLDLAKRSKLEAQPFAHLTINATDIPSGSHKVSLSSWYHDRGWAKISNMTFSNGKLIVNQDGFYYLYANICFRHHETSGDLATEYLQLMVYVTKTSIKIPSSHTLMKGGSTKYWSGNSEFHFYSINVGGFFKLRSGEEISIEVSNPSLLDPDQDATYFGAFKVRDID

BMDM [17] = assay: Inhibition of osteoclastogenesis in M-CSF/RANKL-induced osteoclast differentiation in C57BL/6J mouse BMDM cells assessed as reduction in DC-STAMP mRNA level measured after 5 days by qRT-PCR analysis; assay type: functional, cell-based; conditions: dose <= 2.0 µM, time 5.0 day
MC3T3-E1 [18] = assay: Effect on osteoblast differentiation in mouse MC3T3-E1 cells assessed as change in ALP mRNA level at 0.5 to 2 uM incubated for 7 days by qRT-PCR analysis; assay type: functional, cell-based; conditions: dose 0.5-2 µM, time 7.0 day
BMDM [19] = assay: Inhibition of osteoclastogenesis in M-CSF/RANKL-induced osteoclast differentiation in C57BL/6J mouse BMDM cells assessed as reduction in I-kappaB-alpha phosphorylation at 1 uM measured upto 60 mins by Western blot analysis; assay type: functional, cell-based
MC3T3-E1 [20] = assay: Cytotoxicity against mouse MC3T3-E1 cells at 0.5 to 2 uM incubated for 7 days by MTT assay; assay type: toxicity, cell-based; conditions: mc3t3-e1, 168 h, dose 0.5-2 µM, time 7 day
Mus musculus = assay: Anti-osteoporosis effect in OVX-induced osteoporosis C57BL/6 mouse model assessed as reduction in bone mass loss in distal femur at 10 mg/kg, po administered every other day for 8 weeks by micro-CT analysis; assay type: functional, organism-based
BMDM [21] = assay: Inhibition of osteoclastogenesis in M-CSF/RANKL-induced osteoclast differentiation in C57BL/6J mouse BMDM cells assessed as reduction in p38 phosphorylation at 1 uM measured upto 60 mins by Western blot analysis; assay type: functional, cell-based
[22] = Toxicity in OVX-induced osteoporosis C57BL/6 mouse model assessed as pathological change in lung at 10 mg/kg, po administered every other day for 8 weeks by H and E staining based analysis; assay type: organism-based; conditions: in vivo, 1344 h
BMDM [23] = assay: Inhibition of osteoclastogenesis in M-CSF/RANKL-induced osteoclast differentiation in C57BL/6J mouse BMDM cells assessed as decrease in c-Fos level at 1 uM measured for 5 days by Western blot analysis; assay type: functional, cell-based; conditions: time 5.0 day
[24] = target: T1, Tumor necrosis factor ligand superfamily member 11 (Homo sapiens); assay: Binding affinity to CM5 sensor chip-immobilized RANKL (unknown origin) by SPR analysis; conditions: dose 0.98-31.25 µM
[25] = Toxicity in OVX-induced osteoporosis C57BL/6 mouse model assessed as pathological change in liver at 10 mg/kg, po administered every other day for 8 weeks by H and E staining based analysis; assay type: organism-based; conditions: in vivo, 1344 h
[26] = target: T2, Tumor necrosis factor ligand superfamily member 11 (Homo sapiens, UniProt O14788); assay: Binding affinity to CM5 sensor chip-immobilized RANKL (unknown origin) assessed as dissociation constant by SPR analysis
T2 sequence (O14788 whole entry): T1 sequence (whole entry)

What does the source list for O=C1C([Se]c2ccccc2)=C([Se]c2ccccc2)C(=O)N1Cc1ccccc1?
inhibition (BMDM [1]): Active; inhibition (BMDM [2]): Dose-dependent-effect; inhibition (BMDM [3]): Active; Activity (BMDM [4]): No effect; inhibition (BMDM [5]): Dose-dependent-effect; Activity (MC3T3-E1 [6]): No effect; Activity (MC3T3-E1 [7]): No effect; inhibition (BMDM [8]): Dose-dependent-effect; Activity [9]: Non-toxic; inhibition (BMDM [10]): Dose-dependent-effect; inhibition (RAW264.7): Active; inhibition (BMDM [11]): Dose-dependent-effect; Activity (MC3T3-E1 [12]): No effect; Activity (BMDM [13]): No effect; Activity [14]: Non-toxic; inhibition (BMDM [15]): Dose-dependent-effect; Activity [16]: 1.51 µM; inhibition (BMDM [17]): Dose-dependent-effect; Activity (MC3T3-E1 [18]): No effect; inhibition (BMDM [19]): Active; Activity (MC3T3-E1 [20]): Non-toxic; Activity (Mus musculus): Active; Displayed Similar Effect With That Exhibited By Alendronate; inhibition (BMDM [21]): Active; Activity [22]: Non-toxic; inhibition (BMDM [23]): Active; Activity [24]: Dose-dependent-effect; Activity [25]: Non-toxic; pKd [26]: 6.04
